According to patent US20240180895A1, “USE OF KAPPA OPIOID RECEPTOR AGONISTS TO TREAT CARDIOVASCULAR DISEASE” (Board of Supervisors of Louisiana State University and …, priority 2021, published 2024):

How the values were obtained:
[1] = tested on: spontaneously hypertensive rats; assay: Chronic subcutaneous infusion of nalfurafine, radiotelemetry blood pressure (FIG. 19); format: in vivo, rat
Procedure: Male spontaneously hypertensive rats (SHR; Charles Rivers) were single housed and allowed tap water and standard rodent diet ad libitum. All procedures and experiments were conducted in accordance with the National Institutes of Health guidelines for the care and use of animals.
Radiotelemetry transmitters (Data Sciences International, St. Paul, MN) were implanted into SHR for chronic recording of blood pressure and heart rate and followed as previously published.^56 Briefly, rats were anesthetized and maintained on 2% isoflurane and the right femoral artery was surgically exposed. The transmitter catheter was inserted into the femoral artery and advanced until reaching the abdominal aorta. The site exposing the femoral artery was sutured and rats were allowed 1 week of recovery. Telemetry data was analyzed using Ponemah software (DSI, St. Paul, MN).
In a separate cohort, spontaneously hypertensive rats were administered a subcutaneous nalfurafine infusion (0.3 mg/day) or vehicle (isotonic saline) using an osmotic pump (2ML4; Alzet) for 4 weeks. For the insertion of the osmotic pumps, rats were anesthetized and maintained under 2% isoflurane, a small incision was made at the nape, and the osmotic pump was inserted between the scapulae. The incision was sutured, and rats were returned to their home cages. Blood pressure was recorded throughout the entirety of the experiment and the 20:00-22:00 time frame was plotted.
All results are expressed as mean±SEM. Statistically different changes for both experimental protocols were determined using 2-way ANOVA with repeated measures and were considered statistically different following a significant/value for an interaction between experimental group and time. Statistical significance was determined as P<0.05, and statistics were performed on Prism 7.05 software (GraphPad Software, Inc, San Diego, CA).

[2] = tested on: conscious Sprague-Dawley rats; assay: Metabolic cage renal excretory studies, oral gavage (Example 3); format: in vivo, rat
Procedure: (§1) Animals: Male Sprague-Dawley (SD) rats (Envigo Labs, Indianapolis, IN), 300-350 g, were individually housed under a 12 h light-dark cycle and allowed tap water and standard rodent diet ad libitum. Rats were randomly assigned to experimental groups for all acute and subacute studies. All procedures were approved by the Louisiana State University Health Sciences Center Institutional Animal Care and Use Committee and conducted in accordance with the National Institutes of Health guidelines for the care and use of animals.
Metabolic Cage Renal Excretory Studies: Rats were placed in metabolic cages (model 18cv, Fenco, Cataumet, MA) for 2 hours to allow for acclimation and voiding of residual urine. Following the acclimation period, rats were volume loaded with 20 cc kg^−1 drug or vehicle (isotonic saline) via oral gavage. Urines were collected each hour over a 5-hour period. Following completion of the study rats were returned to their home cages. […] These points are marked on the figures with number of measurements in parentheses.
(§2) Experimental Design and Analysis: All results are expressed as mean±SEM. […] Means between groups for total urine output, Na^+ concentration, K^+ concentration, and urine osmolality were compared using a Student's t-test. Statistical significance was characterized as P<0.05. Statistics were carried out using Prism 7.05 software (GraphPad Software, Inc., San Diego, CA) and IBM SPSS Statistics (IBM, Armonk, NY).

Sprague-Dawley rats [3] = assay: Reversal of oral furosemide diuretic resistance by oral nalfurafine (FIG. 17); format: in vivo, rat; settings: nalfurafine 150 μg/kg oral added from day 7
Procedure: (§3) Male Sprague-Dawley rats were placed in individual metabolic cages in a room with 12-hour automatic light on/off control and allowed tap water and rodent chow ad libitum. Over the next two (2) days (control period), rats were administered vehicle (5% NaOH; 1 M PBS) orally (gavage) in the morning (9:00 am) and afternoon (2:00 pm) and urine was collected for 5-hours after the first oral treatment. […] This was repeated for 8 consecutive days (experimental period).

hemodialysis patients = settings: nearly 4000 hemodialysis patients (Kozono, Yoshitani, et al., 2018); cited from earlier work
[4] = tested on: conscious Sprague-Dawley rats; assay: Acute cardiovascular and renal excretory studies, i.v. bolus (Example 3); format: in vivo, rat
Procedure: as §1
Surgical Procedures: Aseptic technique was followed for all surgical procedures. On the morning of the experiment, rats were anesthetized with and maintained under inhaled 2% isoflurane, and polyethylene catheters (PE50; BD Diagnostics, Sparks, MD) were surgically inserted into the left femoral vein and left femoral artery for the infusion of saline and/or drug administration and the recording of arterial blood pressure, respectively. Subsequently, a suprapubic incision was made and a flanged polyethylene catheter (PE240; BD Diagnostics, Sparks, MD) was inserted into the bladder, exteriorized, and sutured to surrounding muscle and skin. Rats were then placed in an elevated restrainer (Krowicki & Kapusta, 2011) to recover from surgery and allow collection of urine. When acute experimental protocols were completed, rats were anesthetized via isoflurane and decapitated.
Acute Cardiovascular and Renal Excretory Studies: Following surgery, rats received an i.v. infusion of isotonic saline at 55 μL min^−1 throughout the duration of the experiment and were allowed 4-6 hours to recover from anesthesia. Arterial catheters were connected to a pressure transducer (MLT0670, ADInstruments, Sydney, Australia), which was connected to Powerlab 8/30 (ADInstruments) for recording of pulsatile and mean arterial blood pressure (MAP) and heart rate (HR). Blood pressure and HR were visualized using LabChart software (v8.1.5; ADInstruments). […] Following this control period, drug or vehicle (isotonic saline) was injected into the femoral vein catheter at a volume of 2 cc kg^−1, and urines were collected in 10 minute periods for a span of 90 minutes. […] All groups are n=6. Urine volume was measured gravimetrically, urine sodium and potassium concentrations were measured using flame photometry (model 943; Instrumentation Laboratories, Lexington, MA), and urine osmolality was measured using a vapor pressure osmometer (model 5600; WESCOR, Logan, UT).
as §2

[5] = in rats; cited from earlier work
Sprague-Dawley rats [6] = assay: Prevention of diuretic resistance to twice daily furosemide by nalfurafine, 5-hour urine (FIG. 15); format: in vivo, rat; settings: nalfurafine 10 μg/kg IP added to furosemide 20 mg/kg twice daily
Procedure: as §3, with “M PBS, IP)” for “M PBS) orally (gavage)”, “pm) of each day, with” for “pm) and”, “urine” for “urine was”, “5-hours starting immediately” for “5-hours”, “first injection.” for “first oral treatment.”, “for 4” for “for 8”

[7] = subcutaneous infusion 0.3 mg/day, 30 days
[8] = oral gavage, cumulative 5-hour urine, same doses, mean±SEM
[9] = i.v. bolus, cumulative 90-min urine, same doses, mean±SEM

CN(C(=O)/C=C/c1ccoc1)[C@@H]1CC[C@@]2(O)[C@H]3Cc4ccc(O)c5c4[C@@]2(CCN3CC2CC2)[C@H]1O5 [nalfurafine, Nalfurafine]
Decrease in systolic, diastolic, and mean arterial pressure ([1]; 1 day of subcutaneous nalfurafine infusion 0.3 mg/day, 20:00-22:00 time frame): ~20 mmHg | Heart rate vs vehicle [1, 7]: significantly lower heart rate than the vehicle treated group on day 9, day 16-22, and day 25-30 | Systolic, diastolic, mean arterial pressure and heart rate over time [1, 7]: did not demonstrate an increase in these parameters | Time of peak diuresis ([2]; after oral gavage 150 μg kg−1): 2 h | Potassium concentration [K+] in cumulative urine [2, 8]: 14.55±1.46 μeq ml^−1 | Sodium concentration [Na+] in cumulative urine [2, 8]: 16.92±1.45 μeq ml^−1 | Total urine output ([2]; oral gavage, cumulative urine of 5-hour protocol, nalfurafine 150 μg kg−1, furosemide 50 mg kg−1, HCTZ 5 mg kg−1, amiloride 5 mg kg−1, mean±SEM, n=6): 14.55 ± 0.57 mL | Effect on established diuretic resistance to furosemide (Sprague-Dawley rats [3]): able to treat or rescue the diuretic resistance | Dysphoric adverse effects (hemodialysis patients): did not cause the typical dysphoric adverse effects | Duration of the increase in urine flow rate above control ([4]; after i.v. bolus): 50 min | Time of peak diuresis (urine flow rate) ([4]; after i.v. bolus): 30 min | Time of peak antikaliuresis ([4]; after i.v. bolus 5 μg kg−1): 50 min | Time of peak antinatriuresis ([4]; after i.v. bolus 5 μg kg−1): 40 min | Effect on heart rate (HR) ([4]; i.v. bolus, 90-min protocol): did not change HR | Potassium concentration [K+] in cumulative urine [4, 9]: 4.51±0.68 μeq ml^−1 | Sodium concentration [Na+] in cumulative urine [4, 9]: 43.59±5.71 μeq ml^−1 | Urine osmolality [4, 9]: 158.7 ± 16.78 mmol/kg | Mean arterial pressure (MAP), peak Δ ([4]; i.v. bolus, peak change vs group control value, time of peak 40 to 90 min as printed): −11 mmHg | Decrease in MAP ([4]; i.v. nalfurafine, as summarised in the discussion): ~10 mmHg | Half-life [5]: ~6 h | Effect on diuretic resistance to furosemide (Sprague-Dawley rats [6]): prevents the diuretic resistance
